The source of these data is patent US11104676B2 (priority 2018, dated 2021).

The experiment addresses GST-tagged recombinant human TYRO3 kinase domain (Homo sapiens (Human), UniProt Q06418). As to conditions: read-out: TYRO3 enzyme IC50.

Chain of GST-tagged recombinant human TYRO3 kinase domain (Q06418 518-790): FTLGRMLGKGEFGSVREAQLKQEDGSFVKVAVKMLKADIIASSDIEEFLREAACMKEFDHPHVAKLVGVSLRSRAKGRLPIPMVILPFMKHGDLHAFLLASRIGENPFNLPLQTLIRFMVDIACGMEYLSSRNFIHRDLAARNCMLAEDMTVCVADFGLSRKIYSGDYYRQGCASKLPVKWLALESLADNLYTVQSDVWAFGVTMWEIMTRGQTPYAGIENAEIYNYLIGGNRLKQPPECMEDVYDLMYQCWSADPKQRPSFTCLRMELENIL

What is called IC50 is the point on the concentration scale where inhibition reaches its midpoint. `COC[C@@H](C)Nc1n[nH]c2nccc(Oc3ccc(NC(=O)c4cc(C)cn(-c5ccc(F)cc5)c4=O)nc3)c12` [Example 178, (R)-1-(4-fluorophenyl)-N-(5-((3-((1-methoxypropan-2-yl)amino)-1H-pyrazolo[3,4-b]pyridin-4-yl)oxy)pyridin-2-yl)-5-methyl-2-oxo-1,2-dihydropyridine-3-carboxamide]: the IC50 was determined as 439 nM.

For the compound `CCn1cc(C(=O)Nc2ccc(Oc3ccnc4[nH]nc(NC(C)(C)COC)c34)c(F)c2)c(=O)n(-c2ccc(F)cc2)c1=O` [Example 157, 1-ethyl-N-(3-fluoro-4-((3-((1-methoxy-2-methylpropan-2-yl)amino)-1H-pyrazolo[3,4-b]pyridin-4-yl)oxy)phenyl)-3-(4-fluorophenyl)-2,4-dioxo-1,2,3,4-tetrahydropyrimidine-5-carboxamide], the IC50 turned out to be 118 nM.

As for `C[C@H](CO)Nc1n[nH]c2nccc(Oc3ccc(NC(=O)c4cc5c(n(-c6ccc(F)cn6)c4=O)CCCC5=O)cc3F)c12` [Example 111, (R)-N-(3-fluoro-4-((3-((1-hydroxypropan-2-yl)amino)-1H-pyrazolo[3,4-b]pyridin-4-yl)oxy)phenyl)-1-(5-fluoropyridin-2-yl)-2,5-dioxo-1,2,5,6,7,8-hexahydroquinoine-3-carboxamide], the IC50 is 137 nM.

Turning to `O=C(Nc1ccc(Oc2ccnc3[nH]nc(NCC4CCS(=O)(=O)C4)c23)c(F)c1)c1ccnn(-c2ccc(F)cc2)c1=O` (centres unmarked) [Example 24, N-(4-((3-(((1,1-dioxidotetrahydrothiophen-3-yl)methyl)amino)-1H-pyrazolo[3,4-b]pyridin-4-yl)oxy)-3-fluorophenyl)-2-(4-fluorophenyl)-3-oxo-2,3-dihydropyridazine-4-carboxamide], the IC50 stood at 120 nM.

For the compound `CC(C)n1cc(C(=O)Nc2ccc(Oc3ccnc4[nH]nc(N[C@H](C)CO)c34)c(F)c2)c(=O)n(-c2cnn(C)c2)c1=O` [Example 93, (R)-N-(3-fluoro-4-((3-((1-hydroxypropan-2-yl)amino)-1H-pyrazoo[3,4-b]pyridin-4-yl)oxy)phenyl)-1-isopropyl-3-(1-methyl-1H-pyrazol-4-yl)-2,4-dioxo-1,2,3,4-tetrahydropyrimidine-5-carboxamide], the IC50 worked out at 767 nM.

For `COC[C@@H]1CCC[C@@H]1Nc1n[nH]c2nccc(Oc3ccc(NC(=O)c4ccnn(-c5ccc(F)cc5)c4=O)cc3F)c12` (relative stereo) [Example 28, N-(3-fluoro-4-((3-((cis-2-(methoxymethyl)cyclopentyl)amino)-1H-pyrazolo[3,4-b]pyridin-4-yl)oxy)phenyl)-2-(4-fluorophenyl)-3-oxo-2,3-dihydropyridazine-4-carboxamide], the IC50 is 375 nM.

Consider `CC(C)(O)C1(Nc2n[nH]c3nccc(Oc4ccc(NC(=O)c5ccnn(-c6ccc(F)cc6)c5=O)cc4F)c23)CCCC1` [Example 182, N-(3-fluoro-4-((3-((1-(2-hydroxypropan-2-yl)cyclopentyl)amino)-1H-pyrazolo[3,4-b]pyridin-4-yl)oxy)phenyl)-2-(4-fluorophenyl)-3-oxo-2,3-dihydropyridazine-4-carboxamide], for which the IC50 was 707 nM.

As for `CC(CC(F)F)Nc1n[nH]c2nccc(Oc3ccc(NC(=O)c4cn(C)cc(-c5ccc(F)cc5)c4=O)nc3)c12` (centres unmarked) [Example 167, N-(5-((3-((4,4-difluorobutan-2-yl)amino)-1H-pyrazolo[3,4-b]pyridin-4-yl)oxy)pyridin-2-yl)-5-(4-fluorophenyl)-1-methyl-4-oxo-1,4-dihydropyridine-3-carboxamide], the IC50 was 224 nM.

Regarding `COCC(C)(C)Nc1n[nH]c2nccc(Oc3ccc(NC(=O)c4ccnn(-c5ccc(F)cc5)c4=O)cc3F)c12` [Example 18, N-(3-fluoro-4-((3-((1-methoxy-2-methylpropan-2-yl)amino)-1H-pyrazolo[3,4-b]pyridin-4-yl)oxy)phenyl)-2-(4-fluorophenyl)-3-oxo-2,3-dihydropyridazine-4-carboxamide], the IC50 is 131 nM.

Regarding `COCC1(Nc2n[nH]c3nccc(Oc4ccc(NC(=O)c5ccnn(-c6ccc(F)cc6)c5=O)cc4F)c23)CCC1` [Example 21, N-(3-fluoro-4-((3-((1-(methoxymethyl)cyclobutyl)amino)-1H-pyrazolo[3,4-b]pyridin-4-yl)oxy)phenyl)-2-(4-fluorophenyl)-3-oxo-2,3-dihydropyridazine-4-carboxamide], the IC50 was found to be 188 nM.

As for `COCC(C)(C)Nc1n[nH]c2nccc(Oc3ccc(NC(=O)c4ccnn(-c5ccc(F)cc5)c4=O)nc3)c12` [Example 71, 2-(4-fluorophenyl)-N-(5-((3-((1-methoxy-2-methylpropan-2-yl)amino)-1H-pyrazolo[3,4-b]pyridin-4-yl)oxy)pyridin-2-yl)-3-oxo-2,3-dihydropyridazine-4-carboxamide], the concentration for half-maximal inhibition (IC50) came out at 192 nM.

Take `O=C(Nc1ccc(Oc2ccnc3[nH]nc(NC4CC(F)(F)C4)c23)c(F)c1)c1ccnn(-c2ccc(F)cc2)c1=O` [Example 12, N-(4-((3-((3,3-difluorocyclobutyl)amino)-1H-pyrazolo[3,4-b]pyridin-4-yl)oxy)-3-fluorophenyl)-2-(4-fluorophenyl)-3-oxo-2,3-dihydropyridazine-4-carboxamide]: the IC50 turned out to be 295 nM.

Turning to `CC(C)n1cc(C(=O)Nc2ccc(Oc3ccnc4[nH]nc(N[C@H](C)CO)c34)c(F)c2)c(=O)n(C2CCOCC2)c1=O` [Example 99, (R)-N-(3-fluoro-4-((3-((1-hydroxypropan-2-yl)amino)-1H-pyrazolo[3,4-b]pyridin-4-yl)oxy)phenyl)-1-isopropyl-2,4-dioxo-3-(tetrahydro-2H-pyran-4-yl)-1,2,3,4-tetrahydropyrimidine-5-carboxamide], the IC50 amounted to 546 nM.

In the case of `CCOC[C@H](C)Nc1n[nH]c2nccc(Oc3ccc(NC(=O)c4cc(C)cn(-c5ccc(F)cc5)c4=O)cc3F)c12` [Example 172, (S)-N-(4-((3-((1-ethoxypropan-2-yl)amino)-1H-pyrazolo[3,4-b]pyridin-4-yl)oxy)-3-fluorophenyl)-1-(4-fluorophenyl)-5-methyl-2-oxo-1,2-dihydropyridine-3-carboxamide], the IC50 amounted to 133 nM.

Consider `Cc1cc(C(=O)Nc2ccc(Oc3ccnc4[nH]nc(NC(C)CC(F)F)c34)cn2)c(=O)n(-c2ccc(F)cc2)c1` (centres unmarked) [Example 168, N-(5-((3-((4,4-difluorobutan-2-yl)amino)-1H-pyrazolo[3,4-b]pyridin-4-yl)oxy)pyridin-2-yl)-1-(4-fluorophenyl)-5-methyl-2-oxo-1,2-dihydropyridine-3-carboxamide], for which the IC50 was 248 nM.

For `COCCC(C)(C)Nc1n[nH]c2nccc(Oc3ccc(NC(=O)c4ccnn(-c5ccc(F)cc5)c4=O)cc3F)c12` [Example 22, N-(3-fluoro-4-((3-((4-methoxy-2-methylbutan-2-yl)amino)-1H-pyrazolo[3,4-b]pyridin-4-yl)oxy)phenyl)-2-(4-fluorophenyl)-3-oxo-2,3-dihydropyridazine-4-carboxamide], the IC50 is 318 nM.

Turning to `COC[C@@H](C)Nc1n[nH]c2nccc(Oc3ccc(NC(=O)c4cc(C(C)C)nn(-c5ccc(F)cc5)c4=O)nc3)c12` [Example 176, (R)-2-(4-fluorophenyl)-6-isopropyl-N-(5-((3-((1-methoxypropan-2-yl)amino)-1H-pyrazolo[3,4-b]pyridin-4-yl)oxy)pyridin-2-yl)-3-oxo-2,3-dihydropyridazine-4-carboxamide], the IC50 worked out at 728 nM.
